For `O=C(Nc1cnc2sc(CO)nc2c1)c1cc2cc(F)ccc2n1Cc1cccc(F)c1`, the melting point fell in the range of 225 to 226 °C.
`O=C(O)COc1ccc(Cl)c2c(=O)c3ccccc3sc12`: the melting point lay in the range of 230 to 232 °C.
The same measure for `Cc1cc(-c2ccc(Cl)cc2)nn2c(C)nnc12`: 209 to 212 °C; for `Cc1ncoc1C(=O)c1ccoc1`: 82 to 83.5 °C; for `CCOc1ccc(C(c2ccc(C(C)(C)C)cc2)C(C)[N+](=O)[O-])cc1` (stereo not drawn): 79 to 82 °C.
The same measure for `CCCCOC(=O)[C@H]1NC(=O)[C@H]1N` (relative stereo): 87 to 89 °C; for `CCOCCn1c(CN2CCN(CC#N)CC2)nc2cccnc21`: 80.7 °C; for `COc1cc2cc(COCC(=O)N3CCN(C)CC3)c(CO)c(-c3ccnc(-n4c(=O)ccc5ccccc54)c3)c2cc1OC`: 100 to 102 °C.
The same measure for `COc1ccc(C2=Nc3ccc(N4CCOCC4)cc3C(=O)C2)cc1`: 302 to 304 °C; for `N#Cc1ccc(OCCCC(=O)O)cc1`: 210 °C.
`O=C(C=Cc1cc(O)c(O)c([N+](=O)[O-])c1)c1ccc([N+](=O)[O-])cc1` registered a melting point of 255 to 256 °C.
`C#CCN(c1ccc(C(=O)NC(CCCCCC(=O)O)C(=O)O)cc1)C1CCc2cc3nc(C)[nH]c(=O)c3cc21` (stereo not drawn) showed a melting point of 186 °C.
Consider `O=[N+]([O-])c1cc(NCCO)c(Cl)cc1NCCO`, for which the melting point lay in the range of 127 to 128 °C.
The same measure for `C#CCCN1C(=O)c2ccccc2C1=O`: 137 to 139 °C.
The same measure for `CCCCc1ccc(CCCCCCC(=O)O)cc1`: 32 to 33 °C; for `Cc1sc(-c2ccccc2)nc1COc1ccc(COc2nn(C)cc2CC(=O)O)cn1`: 140 to 141 °C; for `CCCCC(CC)COc1cc2c3c(cccc3c1Br)C(=O)c1ccccc1-2` (stereo not drawn): 85 to 88 °C.
In the case of `Cc1oc(C2CC2)nc1COc1ccc(CC(OC(C)C)C(=O)O)c2ccccc12` (stereo not drawn), the melting point lay in the range of 129 to 130 °C.
In the case of `O=C(NCc1ccc(Cl)cc1)c1cnc2ccc(OCCO)cc2c1O`, the melting point is 246 to 248 °C.
The same measure for `Fc1ccc2nc[nH]c(=S)c2c1`: 294 to 297 °C.
The same measure for `Cc1cc(-c2nnn(C)n2)cc(C)c1OCCCCc1cc2cccnc2[nH]1`: 147 to 150 °C; for `BrCCCCCCCc1ccc(OCc2ccccc2)cc1`: 32 to 34 °C.
The same measure for `CCC(N)C(=O)Nc1c(C)cccc1C` (stereo not drawn): 48 to 49 °C; for `CCCCC/C=C\C/C=C\CCCCCCCC(=O)Nc1cccc(N(CC(=O)O)CC(=O)O)c1`: 135 to 140 °C; for `Cc1ccc(C)n1NC(=O)COc1ccc(C2=NNC(=O)NC2C)cc1Cl` (stereo not drawn): 189 to 190 °C.
As for `Cn1c(=O)sc2cc(N3C[C@H](C(=O)NCCF)OC3=O)ccc21`, the melting point was 201 to 203 °C.
The same measure for `CCOC(=O)c1cc(NC(=O)C2=C(CC)OCCS2)ccc1Cl`: 86 to 88 °C.
The same measure for `Cc1nc2cccc(OC3CCN(C(=O)C(C)C)CC3)c2c(N)c1C(=O)O`: 184 to 186 °C; for `COc1cc(Nc2nc3cccc(-c4cccc(Cl)c4)c3o2)cc(OC)c1OC`: 199 to 201 °C; for `CS(=O)(=O)c1ncc2cc(Oc3ccccc3F)c(=O)n(-c3ccc(F)cc3)c2n1`: 82.3 to 91.5 °C.
Regarding `N#Cc1cnc2cc(F)ccc2c1Cl`, the melting point fell in the range of 163 to 165 °C.
The same measure for `COc1ccc(C(C)N(C)CCCOc2ccc(S(=O)(=O)C3=C(C(C)C)N(C)CC3)cc2)cc1OC` (stereo not drawn): 100 to 102 °C; for `CN1C(=O)C2(COc3cc4c(cc32)OCCO4)c2c(OCc3ncccc3C(F)(F)F)cccc21` (stereo not drawn): 157 to 159 °C.
Consider `COC(=O)Cc1ccc(Oc2ccc(C#N)cc2)cc1`, for which the melting point was 58 to 60 °C.
The same measure for `CCOc1cccc(C)c1N(C(=O)n1nc(OCC)n(C)c1=O)S(N)(=O)=O`: 147 °C; for `c1ccc2c(c1)C[C@@H]1CCc3ccccc3[C@@H]1O2` (relative stereo): 71 to 72 °C; for `C[C@H](NC(=O)c1c[nH]c2ncc(-c3cn(-c4cccc(C(F)(F)F)c4)cn3)nc12)C(C)(C)C`: 332 to 333 °C.
Turning to `O=C(O)CN(C(=O)CCc1nc2c(F)c(F)cc(F)c2s1)c1ccccc1`, the melting point lay within 121 to 124 °C.
The compound `O=Cc1c(Cl)ccc(C2OCCO2)c1Cl` gave a melting point of 96 to 98 °C.
The same measure for `CC(C)[C@H](NC(=O)N(C)Cc1csc(C2CCC2)n1)C(=O)N[C@@H](Cc1ccccc1)C[C@H](O)[C@H](Cc1ccccc1)NC(=O)OCc1cncs1`: 74 to 76 °C; for `CSc1nc(-c2nn[nH]n2)c(I)c(C(F)(F)F)n1`: 196 to 200 °C; for `COC(=O)c1ccc(-c2nc(-c3ccc(Cl)s3)co2)cc1`: 189 to 190 °C.
The same measure for `COC(=O)C1=C(C)NC(C)=C(NC(=O)Nc2ccccc2)C1c1ccccc1Cl` (stereo not drawn): 203 to 205 °C; for `O=C(Nc1ccc(C(F)(F)F)cc1)N1CCC(c2ccccc2)C(c2ccccc2)=N1` (stereo not drawn): 171 to 173 °C; for `COC(=O)Nc1nc(C)c(-c2nc3ccccc3c(=O)n2-c2ccc(Cl)cc2)s1`: above 275 °C.
The same measure for `COc1ccc(CN2Cc3cc(OC)c(O)cc3C(OC)C2)cc1` (stereo not drawn): 84 to 85 °C; for `COc1ccc(CC(C)(N)C(=O)O)cc1` (stereo not drawn): 243 to 244 °C; for `Cc1nn(-c2cc3nc(S)sc3cc2F)c(=O)n1C`: 299 to 301 °C.
Take `NCc1cc(-c2ccc(C(F)(F)F)cc2)no1`: the melting point was 59 °C.
The same measure for `Cn1c(COc2ccc(CC3SC(=O)N(C(c4ccccc4)(c4ccccc4)c4ccccc4)C3=O)cc2)nc2ccc(Oc3ccc(C#N)cc3)cc21` (stereo not drawn): 135 to 138 °C; for `CC(NC(=O)CC(CNC(=O)OC(C)(C)C)c1ccc(Cl)c(Cl)c1)c1ccccc1` (stereo not drawn): 161 to 162 °C; for `CCCSc1sc(C(=O)OCC)c2c1-c1nc(-c3ccccc3)sc1CC2`: 125 to 126 °C.
The same measure for `CCCCCCOc1c(CBr)ccc2c(OCCCCCC)c(CBr)ccc12`: 58 to 60 °C; for `CCCCCCCC1CCC(C(C#N)Cc2ccc(Br)cc2)CC1` (stereo not drawn): 60 to 62 °C; for `COc1ccc(C(CC2=NN(C)C(=O)C2)c2ccccc2)cc1OC1CCCC1` (stereo not drawn): 105 to 108 °C.
The same measure for `O=C1CC[C@@H](CI)N1Cc1ccccc1`: 92 to 94 °C; for `CCOC(=O)C=CC=Cc1ccc(C=Cc2nc(-c3ccco3)oc2C)cc1`: 155 to 156 °C; for `O=C(O)c1cc2cc(Cl)ccc2nc1N[C@@H](Cc1ccc(Cl)cc1)C(=O)O`: 163 to 168 °C.
For the compound `Cc1cc2c(cc1C)C1(CO2)C(=O)N(Cc2ccccn2)c2ccccc21` (stereo not drawn), the melting point fell in the range of 165 to 168 °C.
The same measure for `CC1(C)CC(=O)Nc2cc3nc(-c4ccc(C(N)=O)cc4)[nH]c3cc21`: 317 to 319 °C; for `O=C1CCC(c2ccccc2)c2cc(Cl)ccc2N1` (stereo not drawn): 184 to 186 °C.
As for `CCOc1nc(N)nc(OC(F)(F)F)n1`, the melting point was in the range of 69 to 71 °C.
The same measure for `O=C(OCc1cc(-c2ccc(F)cc2F)ccc1O)c1cc(O)c2c(c1)C(=O)c1cccc(O)c1C2=O`: 128 to 132 °C.
With `CC1=C(c2ccccc2)C(c2ccccc2Cl)C([N+](=O)[O-])=C(C)N1` (stereo not drawn), the melting point amounted to 232 °C.
The same measure for `CC(C)=CCC/C(C)=C/Cn1c(CO)nc2ccccc21`: 120 to 123 °C.
The same measure for `CC1(C)C(=O)N(c2ccc(C#N)c(C(F)(F)F)c2)C(=O)N1CC1CC1CN1C(=O)N(c2ccc(C#N)c(C(F)(F)F)c2)C(=O)C1(C)C` (stereo not drawn): 178 to 180 °C.
The same measure for `CCS(=O)c1ccc(-c2coc3ccc(-c4nnc(C)o4)cc23)cc1F` (stereo not drawn): 187 to 188 °C.
`Cc1cn(-c2cc(NC(=O)c3ccc(C)c(C#Cc4ccc(NC(C)C)nn4)c3)cc(C(F)(F)F)c2)cn1` returned a melting point of 192 to 194 °C.
The same measure for `CC(=CC(NC=O)C(=O)OCc1ccccc1)CP(=O)(OC(C)C)OC(C)C` (stereo not drawn): 50 to 58 °C.
The same measure for `CC1CC2(C)C(CCC3C4CCC(C5(C)OCCO5)C4(C)CC(=O)C32)CC1O` (stereo not drawn): 167 to 168 °C; for `CC(=O)NC[C@H]1CN(c2ccc(N3CCS(=O)CC3)cc2)C(=O)O1`: 185 to 186 °C.
The compound `CC(=O)C(=Cc1cccc([N+](=O)[O-])c1)P(=O)(OCC(C)C)OCC(C)C` yielded a melting point of 81 to 82 °C.
`COc1ccc(C2=C(CO)c3ccc(OC)cc3CC2)cc1` displayed a melting point of 121 °C.
The same measure for `O=C(C1CCCCC1)C1CCN(Cc2cc(O)c(O)cc2[N+](=O)[O-])CC1`: 240 °C; for `COC(=O)c1ccncc1SCc1ccccc1`: 80 °C.
The same measure for `O=C(C=Cc1ccco1)NCCCCCC(=O)NO`: 151 to 152 °C; for `COc1c(N2CCC(N(C)C)C(C)C2)c(F)c(N)c2c(=O)c(C(=O)O)cn(C3CC3)c12` (stereo not drawn): 210 °C.
The same measure for `COc1cc(C=CC(=O)c2ccc(C3CCCCC3)cc2)cc(OC)c1`: 75.5 to 76.2 °C; for `CCOC(=O)c1c(C(F)(F)F)cc(C(F)(F)F)nc1N`: 84 to 86 °C.
`CN(CC(O)CN(C)S(=O)(=O)C(F)(F)C(F)(F)C(F)(F)C(F)(F)F)S(=O)(=O)C(F)(F)F` (stereo not drawn) yielded a melting point of 79 to 85 °C.
The same measure for `CCCOc1ccc([N+](=O)[O-])c(C)c1Cl`: 42 to 43 °C; for `Cc1cc(OCc2coc(C=Cc3ccc(OC(F)F)cc3)n2)ccc1COCCn1ccnn1`: 119 to 120 °C; for `COc1cc(OC)c2c(=O)[nH]c(-c3ccc(N4CCC(=O)CC4)cc3)nc2n1`: above 350 °C.
Regarding `NC(=O)c1[nH]c2ccc(Cl)cc2c1S(=O)(=O)c1cccc(Cl)c1`, the melting point fell in the range of 272 to 273 °C.
The same measure for `O=C(O)CC(Sc1ccccc1)c1ccccc1` (stereo not drawn): 85 to 90 °C; for `CC(SC(=S)c1cc(C(C)(C)C)c(O)c(C(C)(C)C)c1)c1ccccc1` (stereo not drawn): 70 to 72 °C.
`CC(C(=O)O)c1ccc2c(c1)CC(C)(C)C2` (stereo not drawn): the melting point lay in the range of 180 to 183 °C.
The same measure for `O=S(c1c(C(F)(F)F)[nH]c2ccccc12)C(F)(F)F` (stereo not drawn): 183 to 185 °C.

For the origin of these results see a melting point compilation (Tetko et al.; mined from patent text by program, amines drawn as free bases though some values may be those of a salt).
